According to patent US20190345202A1, “ANDROGEN RECEPTOR ANTISENSE OLIGONUCLEOTIDES” (OliPass Corporation, priority 2016, published 2019):

Assays:
10-mer complementary DNA = assay: Tm of duplex between PNA and 10-mer complementary DNA (UV/Vis); format: binding; conditions: 4 μM PNA and 4 μM 10-mer DNA, aqueous buffer pH 7.16, 10 mM sodium phosphate, 100 mM NaCl
Method: The PNA derivatives in Table 1 were evaluated for their binding affinity for 10-mer DNAs complementarily targeting either the N-terminal or C-terminal. The binding affinity was assessed by Tm value for the duplex between PNA and 10-mer complementary DNA. The duplex between PNA derivatives in Table 1 and fully complementary DNAs show Tm values too high to be reliably determined in aqueous buffer solution, since the buffer solution tends to boil off during the Tm measurement.
Tm values were determined on an UV/Vis spectrometer as follows. A mixed solution of 4 μM PNA oligomer and 4 μM complementary 10-mer DNA in 4 mL aqueous buffer (pH 7.16, 10 mM sodium phosphate, 100 mM NaCl) in 15 mL polypropylene falcon tube was incubated at 90° C. for a minute and slowly cooled down to ambient temperature over several minutes. Then the solution was transferred into a 3 mL quartz UV cuvette equipped with an air-tight cap, and subjected to a Tm measurement at 260 nm on an Agilent 8453 UV/Visible spectrophotometer or a similar one as described in the prior art [PCT/KR2009/001256] or with minor modifications. The 10-mer complementary DNAs for Tm measurement were purchased from Bioneer (www.bioneer.com, Dajeon, Republic of Korea) and used without further purification.

C57BL/6 mice = assay: Hair growth in C57BL/6 mice upon topical administration (brightness score, hair weight); format: in vivo, mouse; conditions: for average hair weight: hair growth between Day 0 and Day 21
Method: [Hair Removal and Grouping] In Day 0, 7 week old female C57BL/6 mice were anesthetized with zoletil/rompun, and the hair in the back was cut and removed with a clipper and wax, respectively. Mice with flawless (i.e. spotless) hair removal were selected and randomly assigned into three groups (7 animals per group).
[Topical Administration] The topical solutions of “ASO 1” were prepared by diluting a mother stock solution of “ASO 1” to 0.2 fM or 1 fM in aqueous 30% (v/v) ethanol supplemented with 3% (v/v) glycerin. About 100 μL of 0 (negative control), 0.2, or 1 fM “ASO 1” was topically administered in the back of each animal using a cotton ball in Days 3, 7, 10, and 14.
[Digital Image Scoring for Hair Growth] For scoring the hair growth, the animals were anesthetized and photographed by group as shown in FIG. 11A using a digital camera at a fixed value of exposure time and illumination. The digital image for the area of the hair removal for each animal was selected and digitally scored for the average brightness over the selected area using “ImageJ” program. Lower brightness score is taken as faster hair growth. Brightness scores of individual animals were combined by group, and subjected to statistical analysis by student's t-test. FIG. 11B summarizes the relative brightness scores of the ASO treated groups against the control group. The relative brightness score tended to decrease with days in the treatment groups. […] Thus, “ASO 1” was concluded to promote hair growth upon topical administrations at 1 fM.
[Scoring by Hair Weight] In Day 21, the animals were anesthetized and the hair in the back was cut with a clipper. The hair samples from individual animals were combined by group, and weighed to evaluate the hair growth between Day 0 and Day 21. The average hair weight was 70.5 mg/animal for the control group, 90.8 mg/animal for the 0.2 fM treatment group, and 94.4 mg/animal for the 1 fM treatment group. Thus “ASO 1” was concluded to promote hair growth upon topical administrations at 0.2 fM as well as 1 fM.
[Hair Removal and Grouping] In Day 0, 7 week old female C57BL/6 mice were anesthetized with zoletil/rompun, and the hair in the back was cut and removed with a clipper and wax, respectively. Mice with flawless (i.e. spotless) hair removal were selected and randomly assigned into three groups (10 animals per group).
[Topical Administration] The topical solutions of “ASO 5” were prepared by diluting a mother stock solution of “ASO 5” to 1, 5, or 25 fM in aqueous 30% (v/v) ethanol supplemented with 3% (v/v) glycerin. About 100 μL of each ASO solution or vehicle (negative control) was topically administered to in the back of an animal using a cotton ball in Days 3, 7, 10, 14 and 21.
Following the shaving in Day 21, the animals received a single topical administration of either vehicle or “ASO 5” at 1 fM, 5 fM, or 25 fM. In Day 53, the hair in the back was collected by shaving with a clipper to determine the total amount of hair growth between Days 21 and 53. The average hair weights of the 1 fM, 5 fM, and 25 fM groups were 1,630%, 1,450%, and 771% of the non-treated group, respectively. Thus “ASO 5” was concluded to promote hair growth upon topical administrations at 1 to 25 fM.
[Hair Removal and Grouping] In Day 0, 7 week old female C57BL/6 mice were anesthetized with zoletil/rompun, and the hair in the back was cut and removed with a clipper and wax, respectively. Mice with flawless (i.e. spotless) hair removal were selected and randomly assigned into three groups (9 animals per group).
[Topical Administration] The topical solutions of “ASO 10” were prepared by diluting a mother stock solution of “ASO 10” to 1, 5, or 25 fM in aqueous 30% (v/v) ethanol supplemented with 3% (v/v) glycerin. About 100 μL of each ASO solution or vehicle (negative control) was topically administered to in the back of an animal using a cotton ball in Day 2.

androgen receptor = assay: AR IHC of skin samples after topical administration in mice; format: in vivo, mouse; conditions: topical 0.2 fM or 1 fM, skin sampled Day 24
Excerpt: [AR IHC of Skin Sample] Following the shaving in Day 21, the mice received a single topical administration of either vehicle or “ASO 1” according to the group. In Day 24, the skin of the area with hair removal was sampled for immunohistochemistry (IHC) analysis against androgen receptor. The skin samples were cryo-sectioned and subjected to immunostaining in series with a primary anti-AR antibody (Cat. No. sc-816, Santa Cruz) at 1:100 dilution, with a secondary anti-IgG (Cat No. BA-1100, Vector) at 1:200 dilution, and then with Dylight 594-steptavidin (Cat No. SA-5594, Vector, Calif., USA) at 1:200 dilution for red fluoresence tagging. The IHC images were captured on an Olympus fluorescence microscope for changes in the AR expression level upon topical treatment with “ASO 1”.
[AR Immunohistochemistry of Skin Samples] After the hair cut in Day 27, The animals topically received further either vehicle or “ASO 10” at 1, 5, or 25 fM in Days 27 and 29. Skin samples of the back were collected in Day 30 for immunohistochemical analysis against androgen receptor. The skin samples were subjected to immunostaining against androgen receptor as described in “Example 7”. IHC images were captured on a Zeiss slide scanner. FIG. 14B is a representative set of AR IHC images. […] It would be difficult to clearly state that the AR expression in hair follicles decreased in the treatment groups due to the marked increases in the number of hair follicles in the treatment groups.

full-length AR protein = assay: Western blot of AR protein in MCF7 cells; format: cell-based, human; conditions: 100 zM to 300 aM, 48 hours
Method: 4 culture dishes were used for 4 negative controls. 48 hours later, cells were washed 2 times with cold PBS, and then subjected to lysis with 200 μL 1× cell lysis buffer (Cat. No. 9803, Cell Signaling Tech) supplemented with 1× protease inhibitor (Cat. No. P8340, Sigma). The lysates were collected in 1.5 ml e-tube. 200 μL of each lysate was mixed with 100 μL 3× sample buffer, and boiled for 5 min at 100 ? . 20 μL of each lysate (12 lysates in total). 4 negative controls and 8 ASO treatment samples) was subjected to electrophoretic separation on a 8% SDS-PAGE gel, and transferred onto a 0.2 μm PVDF membrane. The membrane was probed with anti-AR antibody (Cat. No. 5153, Cell Signaling Tech) and anti-β-actin antibody (Cat. No. sc4778, Santa Cruz). FIG. 10A provides the AR Western blot data obtained therefrom. Multiple (negative) control samples were used to overcome technical artifacts of western blot procedures.

human AR mRNA = assay: qPCR (SYBR Green) of AR mRNA level in MCF7 cells; conditions: 5 hours

| Substance | Tm Value, 10-mer DNA against C-Terminal (10-mer complementary DNA) | Tm Value, 10-mer DNA against N-Terminal (10-mer complementary DNA) | average hair weight (C57BL/6 mice; 0.2 fM topical) | average hair weight (C57BL/6 mice; 1 fM topical) | brightness score vs non-treated group (C57BL/6 mice; Day 13, 1 fM topical in Days 3, 7, 10, 14, lower brightness = faster hair growth) | AR expression in hair follicles (IHC) (androgen receptor) | AR expression in the muscle layer underneath the dermis (IHC) (androgen receptor) | AR band intensity vs lysates without ASO treatment (full-length AR protein) | exon message levels (exons 4-6) relative to negative control (human AR mRNA; 1 aM) | decrease of exon message levels (exons 4-6) (human AR mRNA; 100 zM) |
| --- | --- | --- | --- | --- | --- | --- | --- | --- | --- | --- |
| Fethoc-C(1O2)TT-A(6)CC-A(6)GG(6)-CA(6)A-NH2 (antisense CTTACCAGGCAA; N-Fethoc, C-terminal amide, chemistry not fully specified) [ASO 13] | 87.0 °C | 83.0 °C |  |  |  |  |  |  |  |  |
| Fethoc-GA(5)T-AC(1O2)C-A(5)GG(6)-CAA(5)-G-NH2 (antisense GATACCAGGCAAG; N-Fethoc, C-terminal amide, chemistry not fully specified) [ASO 8] | 86.0 °C | 87.4 °C |  |  |  |  |  |  |  |  |
| Fethoc-TA(5)C-CAG(6)-GC(1O2)A-A(5)GG(6)-C—NH2 (antisense TACCAGGCAAGGC; chemistry not fully specified) [ASO 9] | 84.5 °C | 84.3 °C |  |  |  |  |  |  |  |  |
| Fmoc-GA(5)A-GC(1O2)C-A(5)GG-C(1O2)AA(5)-G-NH2 (antisense GAAGCCAGGCAAG; N-Fmoc, C-terminal amide, chemistry not fully specified) [ASO 1] |  |  | 90.8 mg/animal | 94.4 mg/animal | significantly lower | markedly inhibited | decreased | considerably weaker | ~60 % of the negative control | more than 80% |
